± gives the standard deviation of the averaged measurements.
Assays:
[1] = test system: STS26T; experiment: % inhibition of CellTiter-Glo viability at highest tested concentration (72 h), relative to DMSO and benzethonium chloride controls; higher = more inhibition
Method in brief: (§1)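 After seeding 750–1000 cells per well of MPNST cell lines or primary human Schwann cells into 384-well plates preprinted with each compound at five concentrations in 10-fold steps, plates were kept 72 h at 37 °C, 5% CO2. Viability was read as CellTiter-Glo ATP luminescence relative to vehicle and positive-control wells, with duplicates averaged where present. The data were fitted with four-parameter logistic models. Drug sensitivity score and relative IC50, censored at the top concentration, derive from the fits, and percent inhibition refers to the top concentration.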

[2] = test system: YST-1; experiment: as above
Method in brief: as §1

[3] = test system: HSC1 (primary human Schwann cells); experiment: as above
Method in brief: as §1

[4] = test system: ST8814; experiment: as above
Method in brief: as §1

[5] = test system: S1507-2; experiment: as above
Method in brief: as §1

[6] = test system: HSC2 (primary human Schwann cells); experiment: as above
Method in brief: as §1

[7] = test system: S462; experiment: as above
Method in brief: as §1

[8] = test system: HS-PSS; experiment: as above
Method in brief: as §1

[9] = test system: HS-Sch-2; experiment: as above
Method in brief: as §1

[10] = test system: STS26T; experiment: drug sensitivity score (DSS, CellTiter-Glo viability, 72 h) (DSS (dimensionless)); higher = more sensitive; extreme values may be limits of the assay
Method in brief: as §1

[11] = test system: YST-1; experiment: as above
Method in brief: as §1

[12] = test system: HSC1 (primary human Schwann cells); experiment: as above
Method in brief: as §1

[13] = test system: ST8814; experiment: as above
Method in brief: as §1

[14] = test system: S1507-2; experiment: as above
Method in brief: as §1

[15] = test system: HSC2 (primary human Schwann cells); experiment: as above
Method in brief: as §1

[16] = test system: S462; experiment: as above
Method in brief: as §1

[17] = test system: HS-PSS; experiment: as above
Method in brief: as §1

[18] = test system: HS-Sch-2; experiment: as above
Method in brief: as §1

[19] = test system: STS26T; experiment: drug sensitivity score (DSS, CellTox-Green cytotoxicity, 72 h) (DSS (dimensionless)); higher = more cytotoxic; extreme values may be limits of the assay
Method in brief: (§2)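 For 72 h at 37 °C, MPNST cell lines and primary human Schwann cells were exposed in 384-well plates to five 10-fold compound dilutions. CellTox-Green, added before seeding at a final 1:1000 dilution, gave fluorescence from DNA released by disrupted cells. Signals were scaled to vehicle and positive-control wells, cultures failing plate quality control were left out, and four-parameter logistic fits were applied. Relative IC50 and drug sensitivity score were derived from the fits, with IC50 censored at the top concentration.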

[20] = test system: HSC1 (primary human Schwann cells); experiment: as above
Method in brief: as §2

[21] = test system: ST8814; experiment: as above
Method in brief: as §2

[22] = test system: S1507-2; experiment: as above
Method in brief: as §2

[23] = test system: HSC2 (primary human Schwann cells); experiment: as above
Method in brief: as §2

[24] = test system: HS-PSS; experiment: as above
Method in brief: as §2

Structure (SMILES)	% inhibition [1]	% inhibition [2]	% inhibition [3]	% inhibition [4]	% inhibition [5]	% inhibition [6]	% inhibition [7]	% inhibition [8]	% inhibition [9]	drug sensitivity score [10]	drug sensitivity score [11]	drug sensitivity score [12]	drug sensitivity score [13]	drug sensitivity score [14]	drug sensitivity score [15]	drug sensitivity score [16]	drug sensitivity score [17]	drug sensitivity score [18]	drug sensitivity score [19]	drug sensitivity score [20]	drug sensitivity score [21]	drug sensitivity score [22]	drug sensitivity score [23]	drug sensitivity score [24]
CN(C)C[C@@H]1CCn2cc(c3ccccc32)C2=C(C(=O)NC2=O)c2cn(c3ccccc23)CCO1 [Ruboxistaurin] (max concentration tested 10000 nM)	97.6%	99.7%	93.9%	39.6%	98.5 ± 4.9%	96.3%	78.9 ± 11%	86.7%	100%	5.76	10	5.06	3.54	7.37 ± 0.77	7.78	6.12 ± 0.41	5.24	5.19	6.98	7.83	0.807	6.69 ± 0.61	8.33	1.36
CNCc1ccc(-c2[nH]c3cc(F)cc4c3c2CCNC4=O)cc1 [Rucaparib] (max concentration tested 10000 nM)	4.71%	60.9%	4.91%	4.21%	-0.362 ± 7.1%	8.78%	27.7 ± 9%	30.1%	22.2%	0	8.59	0	0	0	0	2.11 ± 0.82	2.72	1.1	0	0	0	3.1 ± 4.4	0	0
CC(C)N(CCCNC(=O)Nc1ccc(C(C)(C)C)cc1)C[C@H]1O[C@@H](n2cc(Br)c3c(N)ncnc32)[C@H](O)[C@@H]1O [SGC0946] (max concentration tested 10000 nM)	4.04%	29%	23.1%	52.9%	42.7 ± 1.2%	16.3%	19.2 ± 8.9%	79.5%	67.2%	0	1.03	0.65	2.58	3.16 ± 1.4	0.163	0.582 ± 0.82	6.51	3.88	0	0	3.21	0.24 ± 0.046	0	2.32
CC(C)(C)c1cnc(CSc2cnc(NC(=O)C3CCNCC3)s2)o1 [SNS-032] (max concentration tested 10000 nM)	97.5%	99.9%	79.4%	87.2%	80.6 ± 3.5%	86.5%	104 ± 0.55%	70.5%	98.6%	31.5	29.4	36.9	24.5	18.6 ± 1.5	38	36.8 ± 1.5	25.9	27.9	23.2	12.8	14.4	0	14.3	1.68
CN1CCN(CCOc2cc(OC3CCOCC3)c3c(Nc4c(Cl)ccc5c4OCO5)ncnc3c2)CC1 [Saracatinib] (max concentration tested 10000 nM)	50.2%	14.6%	50.3%	55.2%	74.8 ± 2.1%	37.1%	36.2 ± 0.27%	67.5%	51.7%	5.09	0.09	7.06	5.63	7.04 ± 1.5	3.21	3.91 ± 0.7	6.08	3.07	1.58	0	5.67	9.49 ± 1.6	6.91	1.13
CC[C@H](CO)Nc1nc(NCc2ccccc2)c2ncn(C(C)C)c2n1 [Seliciclib] (max concentration tested 10000 nM)	23.2%	5.74%	22.5%	5.24%	-2.22 ± 4.7%	34.7%	32.2 ± 3.6%	30.8%	22.6%	0.759	0	0.597	0	0	1.23	1.26 ± 0.44	2.39	0.52	0	0	0	0	0	0.1
Cn1cnc2c(F)c(Nc3ccc(Br)cc3Cl)c(C(=O)NOCCO)cc21 [Selumetinib] (max concentration tested 10000 nM)	33.6%	5.28%	41.3%	51.4%	50.8 ± 4.4%	44.1%	51.8 ± 5.1%	12.8%	35.6%	4.18	0	2.51	5.82	7.78 ± 3.3	3.74	5.86 ± 0.93	0.02	2.54	0	0	1.43	0.984 ± 0.39	0	0
c1ccc2c(CCNc3ccc(Nc4ccncc4)cc3)c[nH]c2c1 [Serdemetan] (max concentration tested 10000 nM)	78.5%	92.5%	65.5%	99.5%	93.39 ± 0.52%	70.3%	100.5 ± 0.77%	95.3%	96.2%	5.45	11.6	6.36	12.2	8.56 ± 0.85	7.15	10.8 ± 0.46	6.09	4.57	3.19	0.111	12.5	4.77 ± 0.64	0	3.27

From the supplement of paper PMC5579334
